The source of these data is PubChem BioAssay (NCI).

Among the test systems are EKVX NSCLC; SNB-75 CNS; HT29 colon; HOP-92 NSCLC; IGROV1 ovarian; UO-31 renal; COLO 205 colon; HS 578T breast; CAKI-1 renal; BT-549 breast.
Common to all, as to test: inhibition of tumour cell growth, NCI panel, 48 h

Structures are written as SMILES.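 The compound was tested at five concentrations on cells cultured in 96-well plates, with a 48-hour exposure period. GI50 = concentration required for 50% inhibition of growth. TGI is the concentration that stops growth completely.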

Regarding `CN(C)c1cccc(NC2=NCCO2)c1`, the TGI was more than 100 µM with EKVX NSCLC; more than 100 µM in the assay on SNB-75 CNS; 47.4 µM with HT29 colon; more than 100 µM in the assay on HOP-92 NSCLC; more than 100 µM with IGROV1 ovarian; more than 100 µM in the assay with UO-31 renal. Moreover, the TGI was 41.3 µM in the assay with COLO 205 colon, more than 100 µM in the assay with HS 578T breast and more than 100 µM in the assay with CAKI-1 renal.
Consider `Cn1nc(-c2ccccc2)c2c(/C=C/c3ccccc3)onc2c1=O`, for which the TGI with EKVX NSCLC is more than 100 µM; in the assay with SNB-75 CNS it was 64.5 µM; in the assay with HT29 colon, more than 100 µM; in the assay with HOP-92 NSCLC it was 98.2 µM; in the assay on IGROV1 ovarian, more than 100 µM; in the assay on UO-31 renal it was more than 100 µM. For the same molecule, the TGI in the assay with COLO 205 colon and in the assay with CAKI-1 renal was more than 100 µM in each case.
With `CC1=C(C(=O)Nc2cc(F)c(F)cc2F)C(c2ccc([N+](=O)[O-])cc2)C(C(=O)Nc2cc(F)c(F)cc2F)=C(C)N1`, the TGI in the assay on EKVX NSCLC is more than 100 µM; in the assay on SNB-75 CNS, 63 µM; in the assay on HT29 colon it was more than 100 µM; in the assay with HOP-92 NSCLC, 42.2 µM; with IGROV1 ovarian, more than 100 µM; in the assay with UO-31 renal, 70.6 µM. For the same molecule, the TGI with COLO 205 colon and in the assay on CAKI-1 renal was more than 100 µM in each case.
`O=C(COc1cccc(/C=C2\CSc3ccccc3C2=O)c1)Nc1nccs1`: the GI50 in the assay with EKVX NSCLC was 7.21 µM; in the assay on SNB-75 CNS, 1.13 µM; in the assay with HT29 colon, 1.85 µM; with UO-31 renal it was 1.29 µM; with COLO 205 colon, 5.61 µM; in the assay with HS 578T breast it was 2.79 µM. Further, in the assay with CAKI-1 renal, the GI50 is 1.72 µM. The TGI with EKVX NSCLC came to 20.5 µM; with SNB-75 CNS, 12.5 µM; with HT29 colon, 3.43 µM; in the assay on UO-31 renal it was 2.64 µM; with COLO 205 colon, 18.9 µM; in the assay with HS 578T breast, 12.5 µM. In the assay with CAKI-1 renal, the TGI came out at 6.33 µM.
In the case of `CCSc1c2ccccc2c(-c2nc(F)nc(F)n2)n1CCc1ccccc1`, the TGI with EKVX NSCLC, in the assay on HT29 colon, in the assay with HOP-92 NSCLC, with UO-31 renal, with COLO 205 colon and with CAKI-1 renal was more than 100 µM in each case.
For `COc1cccc(-c2cc(=O)c3ccccc3[nH]2)c1`, the TGI with EKVX NSCLC is more than 100 µM; in the assay with SNB-75 CNS, more than 100 µM; in the assay with HT29 colon, more than 100 µM; with IGROV1 ovarian it was more than 100 µM; in the assay on UO-31 renal, more than 100 µM; with COLO 205 colon, more than 38.2 µM.
For `CC1(c2ccc(Cl)cc2)C2C(=O)NC(=O)C1C(=O)NC2=O` (centres undefined), the TGI with EKVX NSCLC, in the assay with SNB-75 CNS, in the assay on HT29 colon, with HOP-92 NSCLC, in the assay on IGROV1 ovarian and in the assay with UO-31 renal was more than 100 µM each time. For the same molecule, the TGI in the assay with COLO 205 colon and in the assay on CAKI-1 renal was more than 100 µM in each case.
As for `CN1c2ccccc2N(C(=O)c2ccccc2)C(CC(=O)O)c2cccn21` (centres undefined), the TGI in the assay on EKVX NSCLC, with SNB-75 CNS, in the assay on HT29 colon, with HOP-92 NSCLC, in the assay on IGROV1 ovarian and with UO-31 renal was more than 100 µM each time. In addition, the TGI in the assay with COLO 205 colon and in the assay with CAKI-1 renal was more than 100 µM each time.
With `Cn1c(-c2c(N)n(CCCN3CCOCC3)c3nc(C#N)c(C#N)nc23)nc2ccccc21`, the GI50 with EKVX NSCLC was more than 57 µM; in the assay with SNB-75 CNS it was 4.34 µM; in the assay with HOP-92 NSCLC, 2.73 µM; with IGROV1 ovarian, more than 100 µM; in the assay on UO-31 renal, 6.36 µM; in the assay with COLO 205 colon, more than 42.8 µM. Also, the GI50 in the assay on BT-549 breast was 16.1 µM; in the assay on CAKI-1 renal, 7.52 µM. Also, the TGI in the assay on EKVX NSCLC is more than 100 µM; with SNB-75 CNS, 25 µM; in the assay with HT29 colon it was more than 72.4 µM; in the assay on HOP-92 NSCLC it was 49.8 µM; in the assay on IGROV1 ovarian it was more than 100 µM; with UO-31 renal it was 55.6 µM. In addition, the TGI in the assay on COLO 205 colon is more than 61.7 µM; with BT-549 breast, more than 64.5 µM; in the assay with CAKI-1 renal, more than 49.6 µM.
For the molecule `CC(=O)O[C@H]1CC[C@@]2(C)C(=CC[C@@H]3C2CC[C@]2(C)Nc4nc5ccccc5cc4CC32)C1` (some centres undefined), the TGI came out at 18.8 µM in the assay on EKVX NSCLC; 8.68 µM in the assay on SNB-75 CNS; 3.68 µM in the assay with HT29 colon; 30 µM in the assay on IGROV1 ovarian; 16.9 µM in the assay with UO-31 renal; 20.9 µM in the assay on COLO 205 colon. This molecule also yielded a TGI in the assay on CAKI-1 renal of 18.4 µM.
As for `Brc1ccc2ns[s+]c2c1`, the TGI is more than 100 µM with EKVX NSCLC; more than 100 µM in the assay on SNB-75 CNS; more than 100 µM in the assay on HT29 colon; 95 µM in the assay on HOP-92 NSCLC; more than 100 µM in the assay on IGROV1 ovarian; more than 30.7 µM in the assay with UO-31 renal. Also, the figures for the TGI in the assay on COLO 205 colon and in the assay with CAKI-1 renal were more than 41.9 µM and more than 100 µM, respectively.
Turning to `CCOc1ccc(NC(=O)CC2C(=O)Nc3ccccc3S2(=O)=O)cc1` (centres undefined), the TGI with EKVX NSCLC is more than 100 µM; in the assay with SNB-75 CNS it was 43.2 µM; in the assay on HT29 colon it was more than 100 µM; with HOP-92 NSCLC, 55.5 µM; in the assay with IGROV1 ovarian, more than 100 µM; in the assay on UO-31 renal, more than 100 µM. Also, the TGI in the assay on COLO 205 colon is more than 100 µM.
`Nc1c(Cl)ncnc1NCCCNc1ncnc(Cl)c1N`: the TGI in the assay with EKVX NSCLC, with HT29 colon, in the assay on HOP-92 NSCLC, in the assay with IGROV1 ovarian, in the assay with UO-31 renal and with COLO 205 colon was more than 100 µM in each case. Moreover, in the assay on CAKI-1 renal, the TGI was more than 100 µM.
As for `O=C(NNc1ccccc1)/C(=C/c1ccc2c(c1)OCO2)NC(=O)c1ccccc1`, the TGI in the assay with EKVX NSCLC, with SNB-75 CNS, with HT29 colon, with HOP-92 NSCLC, in the assay on IGROV1 ovarian and in the assay on UO-31 renal was more than 100 µM throughout. Moreover, the TGI in the assay with COLO 205 colon and in the assay with CAKI-1 renal was more than 100 µM each time.
As for `NC(=O)NC1C(C(N)=O)N(Cc2ccccc2)C(=O)N1Cc1ccccc1` (centres undefined), the TGI in the assay with EKVX NSCLC, in the assay on SNB-75 CNS, in the assay on HT29 colon, with HOP-92 NSCLC, in the assay with IGROV1 ovarian and in the assay with UO-31 renal was more than 100 µM throughout. For the same molecule, the TGI in the assay on COLO 205 colon and in the assay with CAKI-1 renal was more than 100 µM in each case.
